Source: article PMC8906351 (Pharmaceutical research, 2021)
Where a name gives a salt, the structure may show the parent alone. Each block holds one compound with its values, some of them ahead of it.

Key:
[1] = system: [^14C]phenytoin efflux across the rat BBB; assay: BEI inhibition study: pre-administration of compounds into rat Par2 region; format: in vivo; conditions: for effect of pre-administration on [14C]phenytoin BEI (in words): 20 mM desipramine, probenecid, MK-571, 5 mM quinidine, 4 mM verapamil, 500 μM prazosin, 10 mM methotrexate, DHEAS, PSC833
[2] = system: MCT8; conditions: concentration of 1 mM; cited from earlier work
[3] = Brain efflux index; format: in vivo, mouse
[4] = Brain efflux index; conditions: rat
[5] = system: P-glycoprotein (P-gp); assay: In situ brain perfusion in wild-type and mdr1a/1b knockout mice; format: in vivo, mouse; conditions: [14C]phenytoin 2.73 μM; perfusion 2.5 mL/min for 2 min
[6] = rat, 0.01 uCi
[7] = adult rats; brain uptake index; cited from earlier work
[8] = in vivo; conditions: rat, not told

SMILES: CCCN(CCC)S(=O)(=O)c1ccc(C(=O)O)cc1 [Probenecid, probenecid]
BEI (%) ([1]; 0.5 h, 20000 µM): 56.5 ± 24.9%
effect of pre-administration on [14C]phenytoin BEI (in words) ([1]; rat, 30 min): not significantly altered

SMILES: C/C=C/C[C@@H](C)C(=O)[C@H]1C(=O)N[C@@H](C(C)C)C(=O)N(C)CC(=O)N(C)[C@@H](CC(C)C)C(=O)N[C@@H](C(C)C)C(=O)N(C)[C@@H](CC(C)C)C(=O)N[C@@H](C)C(=O)N[C@H](C)C(=O)N(C)[C@@H](CC(C)C)C(=O)N(C)[C@@H](CC(C)C)C(=O)N(C)[C@@H](C(C)C)C(=O)N1C [PSC833]
effect of pre-administration on [14C]phenytoin BEI (in words) ([1]; rat, 30 min): did not alter

SMILES: O=C1OC(c2ccc(O)c(S(=O)(=O)O)c2)(c2ccc(O)c(S(=O)(=O)O)c2)c2c(Br)c(Br)c(Br)c(Br)c21 [BSP, Bromosulfophthalein]
inhibition of MCT8-mediated transport of the other substrates [2]: more than 50%
decrease of [14C]phenytoin BEI ([1]; rat, 30 min, pre-administration of 20 mM): 82%

SMILES: CNCCCN1c2ccccc2CCc2ccccc21 [Desipramine, desipramine hydrochloride]
inhibition of MCT8-mediated transport of the other substrates [2]: more than 50%
BEI (%) ([1]; 0.5 h, 20000 µM): 28.4 ± 20.7%
effect of pre-administration on [14C]phenytoin BEI (in words) ([1]; rat, 30 min): significantly decreased

SMILES: CN(C)C(=O)CCSC(SCCC(=O)O)c1cccc(/C=C/c2ccc3ccc(Cl)cc3n2)c1 (centres unmarked) [MK-571]
effect of pre-administration on [14C]phenytoin BEI (in words) ([1]; rat, 30 min): not significantly altered

SMILES: COc1cc2nc(N3CCN(C(=O)c4ccco4)CC3)nc(N)c2cc1OC [Prazosin, prazosin]
effect of pre-administration on [14C]phenytoin BEI (in words) ([1]; rat, 30 min): not significantly altered
BEI (%) ([1]; rat, 30 min, compound 0.5 mM pre-administered, control 64.1 ± 12.9): 59.4 ± 8.5%

SMILES: CN(Cc1cnc2nc(N)nc(N)c2n1)c1ccc(C(=O)N[C@@H](CCC(=O)O)C(=O)O)cc1 [Methotrexate, methotrexate]
BEI (%) ([1]; 0.5 h, 10000 µM): 67.3 ± 16.7%
effect of pre-administration on [14C]phenytoin BEI (in words) ([1]; rat, 30 min): not significantly altered

brain elimination rate constant kel, BBB ([3]; mice, [14C]phenytoin 1.15 mM, 0.3 μL injected into S2 region): 0.0223 ± 0.0075 min⁻¹
half-life t1/2 in the brain ([3]; mice, [14C]phenytoin injected into S2 region): 31.1 ± 10.8 min
half-life ([3]; mouse, brain (ipsilateral hemisphere), 0.019 μCi/0.3 μL (= 1.15 mM)): 31 min
elimination clearance relative to influx clearance ([4]; 177 vs 64 μL/(min·g brain) of Cornford et al.): 2.8 fold
elimination clearance across the BBB ([4]; from kel, bbb and Vd, brain): 177 ±20 μL/(mim•g brain)
Kin value, wild-type vs mdr1a/1b knockout mice [5]: not significantly different
elimination rate constant kel, bbb ([6]; in vivo): 0.0413 ± 46 min⁻¹
half-life t1/2 of brain efflux ([6]; not told): 16.8 ± 1.9 min
half-life [8]: 17 min
SMILES: O=C1NC(=O)C(c2ccccc2)(c2ccccc2)N1 [phenytoin, 5,5-diphenylhydantoin]
100 − BEI value of [14C]phenytoin compared to control ([1]; rat, 30 min, pre-administration of 1 mM unlabeled phenytoin): significantly increased
blood-to-brain influx clearance [7]: 64 μL/(min·g brain)

SMILES: C=C[C@H]1C[N@@]2CC[C@H]1C[C@@H]2[C@@H](O)c1ccnc2ccc(OC)cc12 [Quinidine, quinidine]
BEI (%) ([1]; 0.5 h, 5000 µM): 50.5 ± 13.1%
effect of pre-administration on [14C]phenytoin BEI (in words) ([1]; rat, 30 min): not significantly altered
